The record followed here is patent publication US11033631B2, “Methods of treating CYP2D6 alternative metabolizers” (Nektar Therapeutics, priority 2008, dated 2021).

Where a name gives a salt, the structure may show the parent alone. Read-outs that look alike come from different tables or passages of the source. Where only a bound is given, the exact number is not on record here.

By IC50 is commonly meant the midpoint of a concentration-inhibition curve.

Series [1] has as its target T1, CYP2D6 (Homo sapiens, UniProt P10635). Briefly: biochemical.
Series [2] has as its target T1, CYP2D6.
Series [3] has as its target T2, CYP3A4 (Homo sapiens, UniProt P08684). Briefly: Microsomal inhibition study, inhibition of midazolam metabolism (Example 1). Conditions: read-out: 3A4 Affinity (IC50), Table 2.
Series [4] deals with T1, CYP2D6. Briefly: Microsomal inhibition study, inhibition of bufuralol metabolism (Example 1). Conditions: read-out: 2D6 Affinity (IC50), Table 2.
Excerpt: The degree of a given molecule's metabolism by and affinity for CYP2D6 and other CYP isoforms may be assessed by any techniques known in the art, including through the use of Bactosomes™ or by microsomal inhibition studies. In vitro metabolism studies using Bactosomes™ expressing individual human CYP isoforms monitor the extent to which a test compound is metabolized by a single CYP450 enzyme and allow identification of the CYP isoforms that may be responsible for the metabolism of a test compound. […] These techniques can be used to assess the metabolism and affinity of not only the unconjugated version of a CYP2D6 bioactive drug but conjugated versions as well.
Series [5] concerns the target T2, CYP3A4.
For series [6], the target named is T2, CYP3A4. Conditions: microsomes.
Setting [7] is: read-out: CYP2D6 Inhibition of dextromethorphan O-demethylation IC50, human liver microsomes 0.1 mg/mL, test compound 0.1-25 μM, 5 minutes.
[8] abbreviates: read-out: CYP3A4 Inhibition of testosterone 6β-hydroxylation IC50, human liver microsomes 0.1 mg/mL, test compound 0.1-25 μM, 5 minutes.

T2 sequence (P08684 whole entry): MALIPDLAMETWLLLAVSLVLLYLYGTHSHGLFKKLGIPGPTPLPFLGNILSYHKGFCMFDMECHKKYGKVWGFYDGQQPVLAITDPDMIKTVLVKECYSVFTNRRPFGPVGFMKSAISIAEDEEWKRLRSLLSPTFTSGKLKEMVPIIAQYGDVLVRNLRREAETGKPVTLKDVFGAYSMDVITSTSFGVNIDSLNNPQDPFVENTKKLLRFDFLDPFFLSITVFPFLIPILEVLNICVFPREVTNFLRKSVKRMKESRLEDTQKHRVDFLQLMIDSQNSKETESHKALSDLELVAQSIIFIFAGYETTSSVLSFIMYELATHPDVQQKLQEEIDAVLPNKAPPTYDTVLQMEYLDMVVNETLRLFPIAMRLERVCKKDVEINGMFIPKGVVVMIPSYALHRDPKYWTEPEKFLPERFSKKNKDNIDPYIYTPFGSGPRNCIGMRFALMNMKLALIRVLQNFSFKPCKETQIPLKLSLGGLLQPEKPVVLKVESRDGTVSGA
T1 sequence (P10635 whole entry): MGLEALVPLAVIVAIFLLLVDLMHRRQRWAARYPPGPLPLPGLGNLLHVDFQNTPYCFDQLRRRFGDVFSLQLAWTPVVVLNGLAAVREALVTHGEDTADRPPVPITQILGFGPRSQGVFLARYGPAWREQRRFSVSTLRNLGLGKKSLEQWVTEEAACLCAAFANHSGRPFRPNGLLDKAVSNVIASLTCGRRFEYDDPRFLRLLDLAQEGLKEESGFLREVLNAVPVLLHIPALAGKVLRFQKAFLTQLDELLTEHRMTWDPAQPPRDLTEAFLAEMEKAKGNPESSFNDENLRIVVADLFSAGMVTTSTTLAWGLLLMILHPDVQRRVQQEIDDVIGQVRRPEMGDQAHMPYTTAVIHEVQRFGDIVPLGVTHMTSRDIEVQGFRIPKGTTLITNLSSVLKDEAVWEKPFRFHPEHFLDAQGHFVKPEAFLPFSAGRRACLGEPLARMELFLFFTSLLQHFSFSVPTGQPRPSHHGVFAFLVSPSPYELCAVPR

In the case of `N=C(N)N1CCc2ccccc2C1` [Debrisoquine sulfate], at CYP2D6 [1], the IC50 stood at 19.5 µM.
Consider `COCCOCCOCCOCCOCCN1CCN(C(c2ccccc2)c2ccc(Cl)cc2)CC1` (stereo not drawn) [PEG-3-HZ, mPEG3-hydroxyzine], for which the IC50 on CYP2D6 [2] (setting [7]) was 9.7 µM; on CYP3A4 [3] it was 17.8 µM; on CYP2D6 [4] it was 10.3 µM.
Consider `COCCOCCOCCOCCOCCOCCOCCN1CCN(C(c2ccccc2)c2ccc(Cl)cc2)CC1` (stereo not drawn) [PEG-5-HZ, mPEG5-hydroxyzine], for which the IC50 was 11.5 µM at CYP2D6 [2] (setting [7]); 15.4 µM on CYP3A4 [3]; > 25 µM at CYP3A4 [5] (setting [8]); 7.9 µM at CYP3A4 [6]; 11.7 µM at CYP2D6 [4].
Take `CC(C)NCC(O)COc1cccc2ccccc12` (stereo not drawn) [Propranolol hydrochloride, reference compound]: the IC50 was 7.5 µM at CYP2D6 [2] (microsomes), 13.1 µM against CYP3A4 [5] (microsomes) and > 25 µM at CYP3A4 [6].
As for `COCCOCCOCCN(C)CCOC(c1ccccc1)c1ccccc1` [mPEG3-N-diphenhydramine], the IC50 against CYP2D6 [2] (microsomes) is 2.6 µM; on CYP3A4 [5] (setting [8]), > 25 µM; on CYP3A4 [6], 16.4 µM.
Turning to `COCCOCCOCCNCCCN1c2ccccc2CCc2ccccc21` [mPEG3-NH-desipramine], the IC50 on CYP2D6 [2] (setting [7]) was 1.47 µM; at CYP3A4 [5] (setting [8]), > 25 µM; on CYP3A4 [6], 17.9 µM.
For the molecule `COCCOCCOCCOCCN(C)CCOC(c1ccccc1)c1ccccc1` [mPEG4-N-diphenhydramine], the IC50 against CYP2D6 [2] (microsomes) was 9.2 µM; at CYP3A4 [5] (setting [8]), > 25 µM; against CYP3A4 [6] it was 13.1 µM.
For `COCCOCCOCCOCCOCCOCCOCCNCCCN1c2ccccc2CCc2ccccc21` [mPEG7-NH-desipramine], the IC50 at CYP2D6 [2] (setting [7]) is > 25 µM; on CYP3A4 [5] (setting [8]), > 25 µM; against CYP3A4 [6], 9.51 µM.
